Assay results from patent US20260069694A1, “IDENTIFICATION OF HIGHLY IMMUNOSUPRESIVE TREG POPULATION IN TUMOR MICROENVIRONMENTS” (THE TRUSTEES OF COLUMBIA UNIVERSITY IN THE CITY OF NEW YORK, priority 2023, published 2026).

Tested on: primary PDAC tumors of transgenic KPC mice
Assay: Long-term treatment of transgenic KPC mice; IHC/IF of primary PDAC tumors
Assay type: in vivo, mouse
Settings: per high-power field
Procedure: Long-term treatment studies using combinations of iRGD, Gem, and Nab-P in transgenic KPC mice and subsequent immunohistochemistry (IHC) were performed as previously reported.
For the data presented in FIG. 1, primary PDAC tumors were collected from transgenic KPC mice that received long-term treatment with Gem, iRGD, or iRGD+Gem as part of a previously published survival study. The primary PDAC tumors were immunohistochemically analyzed for the presence of CD8+ T cells.
Primary PDAC tumors were collected from transgenic KPC mice that received long-term treatment with or without Gem, iRGD, or iRGD+Gem as part of a previously published survival study. The presence of Foxp3+ Tregs in the primary PDAC tumors was analyzed by immunofluorescence.

## CRGDKGPDC [iRGD]
IHC, long-term treatment
  number of CD8+ T cells in the PDAC tissue: increased the number of CD8+ T cells
immunofluorescence, compared to the other arms
  PDAC-resident cells expressing Foxp3 (Foxp3+ Tregs): less PDAC-resident cells expressing Foxp3
